Results on one compound are retold here after ChEMBL document CHEMBL3886572, “Cyclic amides” (2016).

This experiment concerns the target Procathepsin L (Homo sapiens, UniProt P07711). In words: Assay buffer: 100 mM potassium phosphate pH 6.5, EDTA-Na 5 mM, Triton X-100 0.001%, DDT 5 mM. […] AMC=7-Amino-4-Methyl-Coumarin. […] Excitation 360 nm, Emission 465 nm. Enzyme is added to the substance dilutions in 96-well microtitre plates and the reaction is started with substrate.

Sequence of Procathepsin L (P07711 whole entry): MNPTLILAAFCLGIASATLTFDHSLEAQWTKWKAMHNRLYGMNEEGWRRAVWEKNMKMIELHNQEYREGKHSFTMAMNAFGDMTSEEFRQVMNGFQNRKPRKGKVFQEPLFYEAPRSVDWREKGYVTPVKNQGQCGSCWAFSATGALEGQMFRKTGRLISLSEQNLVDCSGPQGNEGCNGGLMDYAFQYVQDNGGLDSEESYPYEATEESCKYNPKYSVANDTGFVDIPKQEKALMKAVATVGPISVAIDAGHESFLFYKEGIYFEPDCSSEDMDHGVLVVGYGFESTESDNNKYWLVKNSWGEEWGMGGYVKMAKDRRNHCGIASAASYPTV

With `N#Cc1ccc2c(c1)C(=O)N[C@H](C(=O)NC1(C#N)CC1)Cc1ccc(c(Cl)c1)OC/C=C/CO2`, half-maximal inhibition (IC50) required 6.9 nM.
